Results reported in ChEMBL document CHEMBL5370692, “Synthesis and Evaluation of Small Molecule Inhibitors of the Androgen Receptor N-Terminal Domain” (ACS Med Chem Lett, 2023).

Target: T1, Androgen receptor (Homo sapiens, UniProt P10275)
T1 sequence (P10275 whole entry): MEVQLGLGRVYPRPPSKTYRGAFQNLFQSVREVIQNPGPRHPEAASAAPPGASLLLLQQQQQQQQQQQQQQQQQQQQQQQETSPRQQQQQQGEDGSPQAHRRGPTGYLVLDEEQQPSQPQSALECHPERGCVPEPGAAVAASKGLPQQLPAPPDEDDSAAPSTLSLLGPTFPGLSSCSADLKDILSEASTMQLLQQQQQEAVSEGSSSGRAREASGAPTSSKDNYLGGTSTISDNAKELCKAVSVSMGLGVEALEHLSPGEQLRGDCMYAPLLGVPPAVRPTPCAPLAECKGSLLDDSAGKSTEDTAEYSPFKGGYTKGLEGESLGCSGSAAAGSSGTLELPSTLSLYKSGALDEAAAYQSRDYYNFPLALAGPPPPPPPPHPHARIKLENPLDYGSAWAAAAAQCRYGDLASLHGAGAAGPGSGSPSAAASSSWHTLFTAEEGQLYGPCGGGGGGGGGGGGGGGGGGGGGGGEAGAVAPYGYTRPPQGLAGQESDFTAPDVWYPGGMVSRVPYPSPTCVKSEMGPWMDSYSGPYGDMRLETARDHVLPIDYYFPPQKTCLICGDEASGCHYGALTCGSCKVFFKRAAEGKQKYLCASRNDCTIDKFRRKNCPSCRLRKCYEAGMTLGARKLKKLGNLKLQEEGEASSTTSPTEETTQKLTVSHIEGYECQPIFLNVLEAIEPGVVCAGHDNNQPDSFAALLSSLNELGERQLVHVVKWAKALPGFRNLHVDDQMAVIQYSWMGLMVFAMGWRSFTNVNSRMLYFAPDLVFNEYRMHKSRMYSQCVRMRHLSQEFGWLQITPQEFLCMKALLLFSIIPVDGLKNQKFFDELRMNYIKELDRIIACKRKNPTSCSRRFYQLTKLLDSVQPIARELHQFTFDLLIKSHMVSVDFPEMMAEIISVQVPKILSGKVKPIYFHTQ
Test: Inhibition of androgen receptor in human VCaP cells expressing GRE-2-TATA-Luc co-expressing firefly luciferase incubated for 24 hrs in presence of DHT by luciferase reporter gene assay
Assay type: cell-based

`CSc1ccc(C(N)=O)cc1-c1ccc2cnccc2c1` showed an IC50 of 800 nM.
